What all share (assay): NCI-60 cell line screen, 48 h
The subject of assay [1] is SK-MEL-5.
Assay [2] has as its system NCI-H23.
The test system of assay [3] is MDA-MB-435.
Assay [4] relates to HCC 2998.
Assay [5] relates to LOX IMVI.
Assay [6] concerns SNB-19.
Assay [7] relates to SF-268.
Assay [8] relates to SNB-75.
In assay [9] the test system is HCT-116.
Assay [10] deals with SN12C.
Assay [11] concerns HOP-92.
The subject of assay [12] is TK-10.
Assay [13] concerns MOLT-4.
In assay [14] the test system is 786-0.
The subject of assay [15] is COLO 205.
Assay [16] deals with SW-620.
The subject of assay [17] is HOP-62.
Assay [18] concerns T47D.
Assay [19] concerns HCT-15.
Assay [20] concerns HT-29.

SMILES strings stand for the structures.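 1) Cells in 96-well plates. 2) Compound, 48 h, 5 concentrations. 3) Linear interpolation between surrounding doses. 4) Unreached endpoint = highest concentration. GI50 is the concentration that inhibits growth by half.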 Active and inactive are the calls of the source. No stated cut-off is given here; in the data, active = GI50 up to about 1.1 µM and inactive = higher.

On to `C[C@@H]1OC(=O)/C(=C\N(C)C)[C@H]2CC(=O)N(CCc3cn(S(=O)(=O)C(F)(F)F)c4ccccc34)C[C@H]12`, for which the GI50 in assay [1], in assay [2], in [3], in [4], in [5] and in assay [6] was > 100 µM (inactive) in each case. Also, the GI50 in assay [7], in assay [8], in [9], in assay [10], in assay [11] and in assay [12] was > 100 µM (inactive) in each case. For the same molecule, the GI50 in assay [13], in [14], in [15], in [16], in [17] and in assay [18] was > 100 µM (inactive) each time. Besides, in assay [19], the GI50 was greater than 100 µM.
Regarding `Cc1ccc(SC[C@@]2(C(F)F)NC(=O)NC2=O)cc1`, the GI50 in assay [20], in assay [1], in assay [2], in [3], in [4] and in [5] was > 100 µM (inactive) in each case. Further, the GI50 in assay [6], in [7], in assay [8], in assay [9], in assay [11] and in [12] was > 100 µM (inactive) in each case. The GI50 in assay [13], in assay [14], in assay [15], in [16], in assay [17] and in assay [18] was > 100 µM (inactive) in each case. The molecule also showed a GI50 in [19] greater than 100 µM.
On to `CC(=O)Nc1ccc2[nH]c(C(=O)N3CC(CCl)c4c3cc([N+](=O)[O-])c3ccccc43)cc2c1` (centres undefined), for which the GI50 in assay [20] was 29.9 µM (inactive); in assay [1], 5.89 µM (inactive); in [2] it was 8.57 µM (inactive); in assay [3], 14.7 µM (inactive); in assay [4], 6.4 µM (inactive); in [5] it was 9.2 µM (inactive). In addition, the GI50 in assay [6] is > 30.2 µM (inactive); in assay [7], 1.98 µM (inactive); in assay [8], 3.4 µM (inactive); in [9], 6.41 µM (inactive); in assay [10], 7.8 µM (inactive); in assay [11] it was 2.5 µM (inactive). Also, the GI50 in assay [12] was 6.32 µM (inactive); in assay [13], 0.889 µM (active); in [14], 10.7 µM (inactive); in assay [15], 4.98 µM (inactive); in assay [16], 9.23 µM (inactive); in [18] it was 2.77 µM (inactive). Moreover, the GI50 in [19] was 6.47 µM.
`C=CCn1c(-c2ccc(Cl)cc2)cs/c1=N\c1ccccc1OC`: the GI50 was 2.31 µM (inactive) in [1]; 7.67 µM (inactive) in [2]; 5.06 µM (inactive) in assay [3]; > 100 µM (inactive) in assay [4]; 41.1 µM (inactive) in assay [5]; > 95.5 µM (inactive) in assay [6]. Besides, the GI50 was > 100 µM (inactive) in assay [7]; > 33.3 µM (inactive) in assay [8]; 9.31 µM (inactive) in assay [9]; > 100 µM (inactive) in assay [10]; > 65 µM (inactive) in assay [11]; > 100 µM (inactive) in assay [12]. The GI50 in assay [13] was 0.179 µM (active); in [14] it was > 100 µM (inactive); in [15], 35.8 µM (inactive); in assay [16], 60 µM (inactive); in assay [17], 48.9 µM (inactive); in assay [18], 2.34 µM (inactive). For the same molecule, the GI50 in assay [19] is 50 µM.
Consider `N#Cc1c2ccc([N+](=O)[O-])cc2c(=O)n2c1sc1ccccc12`, for which the GI50 in [20] is 33.7 µM (inactive); in [1] it was 22 µM (inactive); in [2], 15.2 µM (inactive); in assay [3] it was 57.7 µM (inactive); in [4], 8.05 µM (inactive); in assay [5] it was 25.2 µM (inactive). Also, the GI50 in assay [6] is 10.5 µM (inactive); in assay [7], 56.2 µM (inactive); in assay [8], 42.2 µM (inactive); in [9], 11.1 µM (inactive); in assay [10] it was 24.3 µM (inactive); in assay [11] it was 13.5 µM (inactive). Moreover, the GI50 in assay [12] is 16 µM (inactive); in assay [14], 24.2 µM (inactive); in [15] it was 6.87 µM (inactive); in assay [16], 18.9 µM (inactive); in [18] it was 14.8 µM (inactive); in [19] it was 22.2 µM.
Regarding `CCOC(=O)c1nc2cc(C(F)(F)F)ccc2nc1Oc1ccc(OC)cc1`, the GI50 in assay [1], in assay [3], in assay [4], in assay [5], in assay [6] and in assay [7] was > 100 µM (inactive) each time. Moreover, the GI50 in assay [8] is > 100 µM (inactive); in [9], > 100 µM (inactive); in assay [10], > 100 µM (inactive); in assay [11], > 100 µM (inactive); in assay [12], > 100 µM (inactive); in [13], 45.5 µM (inactive). Also, the GI50 in assay [14] was > 100 µM (inactive); in [15], > 100 µM (inactive); in assay [16], > 100 µM (inactive); in assay [18], > 100 µM (inactive); in assay [19], greater than 100 µM.
For the molecule `C=C1C[C@@H]2CC[C@@]34CC5O[C@H]6C(O[C@H]7CC[C@H](CC(=O)O[C@@H]8[C@@H](C)[C@@H]9O[C@@H]%10C[C@]%11(C[C@@H]%12O[C@]%13(C[C@H](C)[C@@H]%14O[C@@H]%15CC(C(O)CO)O[C@@H]%15C[C@@H]%14O%13)C[C@H](C)[C@@H]%12O%11)O[C@@H]%10C[C@@H]9O[C@H]8CC8O[C@@H](CC[C@@H]1O2)C[C@@H](C)C8(O)CO)O[C@@H]7[C@@H]6O3)[C@H]5O4` (some centres undefined), the GI50 was 0.624 µM (active) in assay [1]; > 0.473 µM (active) in assay [2]; 0.294 µM (active) in [3]; > 1 µM (active) in assay [4]; 0.48 µM (active) in [5]; > 1 µM (active) in [6]. Further, the GI50 was > 1 µM (active) in assay [7]; 0.294 µM (active) in assay [8]; 0.627 µM (active) in assay [9]; > 1 µM (active) in [10]; > 0.615 µM (active) in [11]; > 0.45 µM (active) in assay [12]. For the same molecule, the GI50 was > 1 µM (active) in [13]; 0.804 µM (active) in assay [14]; > 0.65 µM (active) in assay [15]; > 0.736 µM (active) in assay [16]; > 1 µM (active) in assay [17]; > 1 µM (active) in assay [18]. Further, the GI50 in [19] was greater than 0.638 µM.
Regarding `C=CC1(C)OC2(CCN(C(=O)OCC)CC2)OC1C` (centres undefined), the GI50 in assay [20], in assay [1], in assay [2], in assay [3], in [4] and in [5] was > 100 µM (inactive) each time. Also, the GI50 was > 100 µM (inactive) in assay [6]; > 100 µM (inactive) in assay [7]; > 100 µM (inactive) in [8]; > 100 µM (inactive) in [11]; > 100 µM (inactive) in assay [12]; 34.8 µM (inactive) in assay [13]. Besides, the GI50 in assay [14] was > 100 µM (inactive); in [15], > 100 µM (inactive); in assay [16], > 100 µM (inactive); in assay [17], > 100 µM (inactive); in assay [18], > 100 µM (inactive); in assay [19], greater than 100 µM.
With `O=C1OC(C2Cc3ccc4ccccc4c3C2=O)c2ccccc21` (centres undefined), the GI50 in assay [1] was 22 µM (inactive); in [3], 51.9 µM (inactive); in assay [4] it was 55.5 µM (inactive); in assay [5], 38 µM (inactive); in [6], 23.2 µM (inactive); in [7] it was 33.8 µM (inactive). The GI50 in [8] is 32.3 µM (inactive); in [9] it was 41.4 µM (inactive); in [10] it was 93.5 µM (inactive); in [11], 49.8 µM (inactive); in [12], 60 µM (inactive); in assay [13] it was 31.4 µM (inactive). Further, the GI50 in [14] was 46.3 µM (inactive); in assay [15], > 100 µM (inactive); in [16] it was 37.8 µM (inactive); in assay [18], 63 µM (inactive); in assay [19] it was 34.8 µM.
On to `CCOC(=O)/C(C(=O)NC(C)C)=C(/N)N1CCOCC1`, for which the GI50 in assay [20], in assay [2], in assay [3], in [4], in assay [5] and in assay [6] was > 100 µM (inactive) in each case. For the same molecule, the GI50 in assay [7], in assay [8], in assay [9], in assay [10], in assay [11] and in [12] was > 100 µM (inactive) each time. For the same molecule, the GI50 in assay [13], in assay [14], in assay [15], in assay [16], in [17] and in [18] was > 100 µM (inactive) each time. Also, the GI50 in [19] was greater than 100 µM.

Values taken from ChEMBL document CHEMBL1201862, “PubChem BioAssay data set” (2004).
